From patent US11753410B2, “Hormone receptor modulators for treating metabolic mutagenic and fibrotic conditions and disorders” (priority 2017, dated 2023)

Target: T1, ligand binding domain of human FXR (Homo sapiens, UniProt Q96RI1)
T1 construct: purchased Thermofisher (LanthaScreen) PV4833
T1 sequence (Q96RI1 262-486 limits assumed): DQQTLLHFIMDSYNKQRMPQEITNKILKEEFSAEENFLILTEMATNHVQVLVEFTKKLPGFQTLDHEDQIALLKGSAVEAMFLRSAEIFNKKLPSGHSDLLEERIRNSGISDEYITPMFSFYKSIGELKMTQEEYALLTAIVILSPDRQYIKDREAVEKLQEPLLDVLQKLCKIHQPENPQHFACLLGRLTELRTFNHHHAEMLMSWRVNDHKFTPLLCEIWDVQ
Test: biochemical
Details: for Emax: extent of activation relative to GW4064, read-out: Ligand Binding % Efficacy; for EC50: −log EC50, concentration required to produce 50% activation, FRET 520 nm/495 nm, 1 hour at room temperature, read-out: Ligand Binding pEC50 (converted)
Protocol: The affinity of FXR ligands for the ligand binding domain of FXR was determined using a commercially available human FXR ligand binding assay (LanthaScreen, Thermofisher Cat #PV4833). […] Binding of FXR ligands to the FXR ligand binding domain promotes binding of the fluorescein-labelled SRC2-2 peptide. This causes a FRET signal between the terbium-labelled anti-GST antibody and the fluorescein-labelled SRC peptide which are both bound to the FXR ligand binding domain.
Test compounds are dissolved in DMSO and a 3-fold serial dilution series is generated, then further diluted into assay buffer. The compounds are mixed with 5 nM GST-tagged FXR ligand binding domain, 5 nM Tb-labelled anti-GST antibody and 500 nM fluorescein-labelled SRC2-2 peptide in a pH7.4 buffer. The reaction is incubated at room temperature for 1 hour, then the FRET signal is measured as the ratio of the 520 nm/495 nm emission following excitation at 340 nm. The change in FRET signal is plotted against the test article concentration and fit to a 3-parameter logistical equation.

| Compound | Emax [%] | EC50 [µM] |
| --- | --- | --- |
| CC[C@H]1[C@H]2C[C@H](C[C@@H]2OCc2c(C3CC3)cnn2-c2c(Cl)cccc2Cl)N1c1ccc(C(=O)O)cc1 [Compound I-17, 4-[(1R,3S,4R,5S)-5-{[4-cyclopropyl-1-(2,6-dichlorophenyl)-1H-pyrazol-5-yl]methoxy}-3-ethyl-2-azabicyclo[2.2.1]heptan-2-yl]benzoic acid] | 15 |  |
| Cc1cccc(Cl)c1-n1ncc(C2CC2)c1CO[C@@H]1C[C@@H]2C[C@H]1CN2c1ccc(C(=O)O)c(F)c1 [Compound I-8, 4-[(1S,4S,5R)-5-{[1-(2-chloro-6-methylphenyl)-4-cyclopropyl-1H-pyrazol-5-yl]methoxy}-2-azabicyclo[2.2.1]heptan-2-yl]-2-fluorobenzoic acid] | 164 | 0.00794 |
| O=C(O)CCc1ccc(N2C[C@@H]3C[C@H]2C[C@H]3OCc2c(C3CC3)cnn2-c2c(F)cccc2Cl)c(F)c1 [Compound I-38, 3-{4-[(1S,4S,5R)-5-{[1-(2-chloro-6-fluorophenyl)-4-cyclopropyl-1H-pyrazol-5-yl]methoxy}-2-azabicyclo[2.2.1]heptan-2-yl]-3-fluorophenyl}propanoic acid] | 185 | 0.158 |
| C[C@@H]1[C@@H]2C[C@@H](C[C@H]2OCc2c(C3CC3)cnn2-c2c(Cl)cccc2Cl)N1c1ccc(C(=O)NS(=O)(=O)C2CC2)c(F)c1 [Compound I-29, N-(cyclopropanesulfonyl)-4-[(1S,3R,4S,5R)-5-{[4-cyclopropyl-1-(2,6-dichlorophenyl)-1H-pyrazol-5-yl]methoxy}-3-methyl-2-azabicyclo[2.2.1]heptan-2-yl]-2-fluorobenzamide] | 59 | 0.2 |
| O=C(NS(=O)(=O)C1CCOCC1)c1ccc(N2C(=O)[C@@H]3C[C@H]2C[C@H]3OCc2c(C3CC3)cnn2-c2c(Cl)cccc2Cl)cc1 [Compound I-26, 4-((1S,4R,5R)-5-((4-cyclopropyl-1-(2,6-dichlorophenyl)-1H-pyrazol-5-yl)methoxy)-3-oxo-2-azabicyclo[2.2.1]heptan-2-yl)-N-((tetrahydro-2H-pyran-4-yl)sulfonyl)benzamide] | 169 | 0.01 |
| O=C(O)c1c(F)cc(N2C[C@@H]3C[C@H]2C[C@H]3OCc2c(C3CC3)cnn2-c2c(Cl)cccc2Cl)cc1F [Compound I-3, 4-[(1S,4S,5R)-5-{[4-cyclopropyl-1-(2,6-dichlorophenyl)-1H-pyrazol-5-yl]methoxy}-2-azabicyclo[2.2.1]heptan-2-yl]-2,6-difluorobenzoic acid] | 156 | 0.0398 |
| O=C(O)c1ccc(N2C[C@@H]3C[C@H]2C[C@H]3OCc2c(C3CC3)cnn2-c2c(Cl)cccc2Cl)cn1 [Compound I-5, 5-[(1S,4S,5R)-5-{[4-cyclopropyl-1-(2,6-dichlorophenyl)-1H-pyrazol-5-yl]methoxy}-2-azabicyclo[2.2.1]heptan-2-yl]pyridine-2-carboxylic acid] | 119 | 0.251 |
| CC1(C)CC(S(=O)(=O)NC(=O)c2ccc(N3C[C@@H]4C[C@H]3C[C@H]4OCc3c(C4CC4)cnn3-c3c(Cl)cccc3Cl)cc2)CCO1 (stereo partly drawn) [Compound I-21, 4-[(1S,4S,5R)-5-{[4-cyclopropyl-1-(2,6-dichlorophenyl)-1H-pyrazol-5-yl]methoxy}-2-azabicyclo[2.2.1]heptan-2-yl]-N-[(2,2-dimethyloxan-4-yl)sulfonyl]benzamide] | 174 | 0.00158 |
| O=C(O)C1CC(c2ccc(N3C[C@@H]4C[C@H]3C[C@H]4OCc3c(C4CC4)cnn3-c3c(Cl)cccc3Cl)c(F)c2)C1 (stereo partly drawn) [Compound I-40, 3-{4-[(1S,4S,5R)-5-{[4-cyclopropyl-1-(2,6-dichlorophenyl)-1H-pyrazol-5-yl]methoxy}-2-azabicyclo[2.2.1]heptan-2-yl]-3-fluorophenyl}cyclobutane-1-carboxylic acid] | 156 | 0.0316 |
| O=C(NS(=O)(=O)C1CCOCC1)c1ccc(N2C[C@@H]3C[C@H]2C[C@H]3OCc2c(C3CC3)cnn2-c2c(Cl)cccc2Cl)cn1 [Compound I-25, 5-((1S,4S,5R)-5-((4-cyclopropyl-1-(2,6-dichlorophenyl)-1H-pyrazol-5-yl)methoxy)-2-azabicyclo[2.2.1]heptan-2-yl)-N-((tetrahydro-2H-pyran-4-yl)sulfonyl)picolinamide] | 130 | 0.0251 |
| Cc1cccc(C)c1-n1ncc(C2CC2)c1CO[C@@H]1C[C@@H]2C[C@H]1CN2c1ccc(CCC(=O)O)cc1F [Compound I-36, 3-{4-[(1S,4S,5R)-5-{[4-cyclopropyl-1-(2,6-dimethylphenyl)-1H-pyrazol-5-yl]methoxy}-2-azabicyclo[2.2.1]heptan-2-yl]-3-fluorophenyl}propanoic acid] | 134 | 0.158 |
| CC[C@H]1[C@H]2C[C@H](C[C@@H]2OCc2c(C3CC3)cnn2-c2c(Cl)cccc2Cl)N1c1ccc(C(=O)O)c(F)c1 [Compound I-19, 4-[(1R,3S,4R,5S)-5-{[4-cyclopropyl-1-(2,6-dichlorophenyl)-1H-pyrazol-5-yl]methoxy}-3-ethyl-2-azabicyclo[2.2.1]heptan-2-yl]-2-fluorobenzoic acid] | 30 |  |
| O=C(NS(=O)(=O)C1CC1)c1ccc(N2C[C@@H]3C[C@H]2C[C@H]3OCc2c(C3CC3)cnn2-c2c(Cl)cccc2Cl)cc1 [Compound I-22, 4-((1S,4S,5R)-5-((4-cyclopropyl-1-(2,6-dichlorophenyl)-1H-pyrazol-5-yl)methoxy)-2-azabicyclo[2.2.1]heptan-2-yl)-N-(cyclopropylsulfonyl)benzamide] | 166 | 0.00398 |
| Cc1cccc(Cl)c1-n1ncc(C2CC2)c1CO[C@@H]1C[C@@H]2C[C@H]1CN2c1ccc(CCC(=O)O)cc1F [Compound I-37, 3-{4-[(1S,4S,5R)-5-{[1-(2-chloro-6-methylphenyl)-4-cyclopropyl-1H-pyrazol-5-yl]methoxy}-2-azabicyclo[2.2.1]heptan-2-yl]-3-fluorophenyl}propanoic acid] | 176 | 0.0398 |
| CC[C@@H]1[C@@H]2C[C@@H](C[C@H]2OCc2c(C3CC3)cnn2-c2c(Cl)cccc2Cl)N1c1ccc(C(=O)O)c(F)c1 [Compound I-18, 4-[(1S,3R,4S,5R)-5-{[4-cyclopropyl-1-(2,6-dichlorophenyl)-1H-pyrazol-5-yl]methoxy}-3-ethyl-2-azabicyclo[2.2.1]heptan-2-yl]-2-fluorobenzoic acid] | 47 |  |
| C[C@@H]1[C@@H]2C[C@@H](C[C@H]2OCc2c(C3CC3)cnn2-c2c(Cl)cccc2Cl)N1c1ccc(C(=O)NS(=O)(=O)C2CCOCC2)c(F)c1 [Compound I-28, 4-((1S,3R,4S,5R)-5-((4-cyclopropyl-1-(2,6-dichlorophenyl)-1H-pyrazol-5-yl)methoxy)-3-methyl-2-azabicyclo[2.2.1]heptan-2-yl)-2-fluoro-N-((tetrahydro-2H-pyran-4-yl)sulfonyl)benzamide] | 56 | 0.398 |
| C[C@@H]1[C@@H]2C[C@@H](C[C@H]2OCc2c(C3CC3)cnn2-c2c(Cl)cccc2Cl)N1c1ccc(C(=O)O)c(F)c1 [Compound I-15, 4-[(1S,3R,4S,5R)-5-{[4-cyclopropyl-1-(2,6-dichlorophenyl)-1H-pyrazol-5-yl]methoxy}-3-methyl-2-azabicyclo[2.2.1]heptan-2-yl]-2-fluorobenzoic acid] | 44 | 1 |
| O=C(O)c1ccc(N2C[C@@H]3C[C@H]2C[C@H]3OCc2c(C3CC3)cnn2-c2c(F)cccc2Cl)cc1F [Compound I-9, 4-[(1S,4S,5R)-5-{[1-(2-chloro-6-fluorophenyl)-4-cyclopropyl-1H-pyrazol-5-yl]methoxy}-2-azabicyclo[2.2.1]heptan-2-yl]-2-fluorobenzoic acid] | 164 | 0.0398 |
| O=C(O)CCc1ccc(N2C(=O)[C@@H]3C[C@H]2C[C@H]3OCc2c(C3CC3)cnn2-c2c(Cl)cccc2Cl)c(F)c1 [Compound I-39, 3-{4-[(1S,4R,5R)-5-{[4-cyclopropyl-1-(2,6-dichlorophenyl)-1H-pyrazol-5-yl]methoxy}-3-oxo-2-azabicyclo[2.2.1]heptan-2-yl]-3-fluorophenyl}propanoic acid] | 136 |  |
